Measured values published in paper PMC5640672, “Molecular mechanism of synergy between the antimicrobial peptides PGLa and magainin 2” (Scientific Reports, 2017).
No end group written: not given here.

How the values were obtained:
[1] = Fluorescence ANTS/DPX vesicle leakage assay in POPE/POPG/TOCL (72:23:5); settings: POPE/POPG/TOCL (72:23:5) 100 nm vesicles, P/L ≈ 1:30, mixtures 1:1, 10 mM HEPES pH 7.5, 155 mM NaCl, 30 °C, 600 s, % of Triton-X-100 leakage, mean of n = 3
Description: It could be argued that POPC/POPG (3:1) is not the most appropriate model system to describe a bacterial membrane, which rarely contains PC lipids. We therefore also performed leakage in another lipid system, POPE/POPG/TOCL (72:23:5), which is a good model of E. coli membranes[45],[69],[70]. […] For all of the other mutants discussed below, leakage was also studied both in POPC/POPG as well as POPE/POPG/TOCL, but since the results (synergy or no synergy) were in all cases the same, the latter data will not be presented in the text. All leakage data in POPE/POPG/TOCL (72:23:5) for charge mutants are summarized in Supplementary Table S4.
Leakage of small unilamellar vesicles induced by the peptides was studied using a standard fluorescence assay.
The appropriate lipids for each experiment were dissolved in CHCl3, together with 0.02 mol-% Rhodamine-PE (Rh-PE). […] This stock suspension was subjected to 10 freeze-thaw cycles and then frozen. Appropriate aliquots of the stock lipid suspension were unfrozen each day and extruded (41 times) through polycarbonate membranes with 100 nm pore size, and stored at room temperature overnight. The fluorophore and quencher outside the vesicles were removed by size exclusion chromatography using spin-columns (Pierce centrifuge column, 2 ml, Life Technologies GmbH, Darmstadt, Germany) filled with Sephacryl 100-HR (2 min, 1500 × g). For elution, a 10 mM HEPES buffer (pH 7.5) was used, containing 155 mM NaCl to balance the osmolarity. After extrusion and removal of the external dye and quencher, the lipid concentration usually decreases. Therefore, before each set of measurements a rhodamine spectrum was recorded to determine the actual concentration of lipids, which was referenced to a spectrum taken of vesicles made by sonification without any subsequent treatment.
Fluorescence experiments were performed on a FluoroMax2 spectrofluorimeter (HORIBA Jobin Yvon, Unterhaching, Germany) equipped with a thermostated sample holder and magnetic stirrer, using an excitation wavelength of 355 nm, an emission wavelength of 508 nm, and slit widths of 5 nm. The peptide solutions were placed in elution buffer in a 1 cm standard cuvette at 30 °C. 100 s after the start of the measurement lipid vesicles were added, and the intensity of the fluorescence at 508 nm was recorded. The leakage was measured during 600 s after addition of vesicles, and the measurement was terminated after addition of Triton-X-100 (0.25% v/v), which dissolved the vesicles, and yielded 100% leakage. To determine the background signal of the vesicles themselves, several blanks were recorded per measurement set. From the leakage values of the peptides alone and of the mixture of two peptides a synergy factor SF was calculated:3 SF=L(A+B)/[L(A)+L(B)] Here, L(A) is the leakage found with peptide A alone, L(B) is the leakage found with peptide B alone, and L(A + B) is the leakage found with the mixture of peptides A and B. In all cases the P/L was the same for both peptides, alone and in the mixture, so that in the mixture the total P/L was twice that of the individual peptide measurements. […] Measurements were repeated three times and average values and standard deviations calculated for the leakage and the synergy factors. An average SF ≥ 2 was taken to indicate synergy.

E. coli DSM 1103 = test: Checker-board assay (FICI); format: cell-based, Escherichia coli; settings: below 0.5 = synergistic activity
Description: A suitable method to study synergistic antimicrobial activity is the so-called checker-board assay, described in the Methods section. We performed such experiments on one Gram-negative bacterium, E. coli, and one Gram-positive one, S. aureus. From this method a fractional inhibitory concentration index (FICI) is determined, and when this is below 0.5, the peptides are said to have a synergistic effect against bacteria. This is the biologically relevant effect, but we are here interested in the atomistic details of the interactions behind the effect. Therefore we also use biophysical methods.
The antimicrobial activity of the peptides was investigated with a standard MIC assay[87],[88] on one Gram positive (Staphylococcus aureus, DSM 1104, ATCC 25923) and one Gram negative bacterial strain (Escherichia coli, DSM 1103, ATCC 25922). Bacteria were grown in Müller-Hinton medium (MH) at 37 °C and 220 rpm. Overnight cultures were inoculated from a single colony and grown for approximately 16 h. Day cultures were grown for approximately 3 h until they reached the exponential growth phase. These suspensions were diluted with MH-medium to a concentration of 10^6 colony-forming units (CFU) per ml. The microtiter plates (96 wells of 100 µL) were filled with 50 µL of MH, and serial 2-fold dilutions of each peptide were arranged in triplets along the columns. […] The MIC value was determined visually, as the lowest peptide concentration which inhibited bacterial growth in at least two out of three columns.
To visualize synergy between different peptides, a two-dimensional dilution assay was used[89],[90]. […] From these values, fractional inhibitory concentration indices (FICIs) were calculated with the following formula[89],[91]:1 FICI=[MIC(A)^comb/MIC(A)^alone]+[MIC(B)^comb/MIC(B)^alone] In this formula, MIC(A)^alone is the MIC value determined for peptide A alone, and MIC(A)^comb is the concentration of peptide A at the MIC determined for the combination. […]

[2] = Table S8 series (PGLa-to-MSI mutants)
[3] = Table S4 series (charge mutants)

Substance	Leakage, mean value [1, 2]	FICI in combination with MAG2-WT (E. coli DSM 1103)	Leakage, mean value [1, 3]	Leakage, mean value ([1]; Table S12 series (MSI-to-PGLa mutants))
GMASKIGAIAGKIAKVALKAL-NH2 (also: 15N-labeled Ala10) [PtM-A6I, PGLa single mutant A6I]	3.7%	–	–	–
KIAGKAGAIAGKIAKVALKAL-NH2 [PtM-a2, PGLa to MSI-103 mutant, three amino acids converted]	4.5%	below 0.5	–	–
GIGKFLHSAKKFGKAFVGKIMNS-NH 2 (GIGKFLHSAKKFGKAFVGKIMNS-NH2) [MAG2-E19K-amide, amidated MAG2 E19K mutant]	–	–	2.9%	–
GMASKAGKIAGKIAKVALKAL-NH2 (also: 15N-labeled Ala10) [PtM-A8K, PGLa single mutant A8K]	7.1%	–	–	–
GIGKFLHSAKKFGKAFVGKIMNS-OH [MAG2-E19K, MAG2 charge mutant E19K]	–	–	1.6%	–
KIAGKIGKIAGKIAKIAGKIA-NH2 [MtP-A7G, MSI-103 to PGLa single mutant A7G]	–	below 0.5	–	5.1%
GMASKAGAIAGKIAKIAGKIA-NH2 [PtM-c1, PGLa to MSI-103 mutant, segment C replaced]	1.5%	below 0.5	–	–
